Reference: patent publication US20130245075A1, “MELANOGENESIS INHIBITION-METHODS AND COMPOSITIONS THEREOF” (priority 2012, published 2013)
Values after ≈ are worked out from the molar mass of the structure shown.

Test system: B16 F1 mouse melanoma cells
Test: Melanogenesis inhibition: intracellular melanin in α-MSH/cAMP-induced B16F1 cells
Assay type: cell-based
Conditions: B16-F1, 216 h, melanin induced by α-MSH/cAMP, 9 days treatment, melanin extracted by 1N NaOH, absorbance 405 nm, read-out: IC50 (inhibition of melanin formation)
Experimental: The intracellular melanin in B16 F1 mouse melanoma cells treated with varying concentrations of the sample is extracted by 1N NaOH. The brown colored melanin thus extracted is estimated at 405 nm. This brown color intensity of the melanin is quenched in the presence of the inhibitor. B16F1 mouse melanoma cells are cultured for 24 hours in a 6 well microtiter plate at a seeding density of 5000 cells per well. Melanin production is induced by α-MSH/cAMP after which the cells are treated with varying non-cytotoxic concentrations of the sample over a period of 9 days with sample treatment at regular intervals of 3 days. The melanin is extracted by 1N NaOH and the absorbance read at 405 nm in a Microplate reader. The inhibitory effect of the sample is calculated based on the degree of inhibition of melanin formation. The results are expressed as IC50 values using Graph pad prism software. The percentage of inhibition of melanin is calculated as follows % Inhibition=C−T/C×100 Where, C-absorbance due to melanin in untreated cells; T-absorbance due to melanin in sample treated cells

SMILES | IC50 [µg/mL]
O=c1cc(CO)occ1O [Kojic acid] | 100 (≈ 704 µM)
COc1cc(/C=C/C(=O)N2CCC=CC2=O)cc(OC)c1OC [piperlongumine] | 0.625 (≈ 1.97 µM)
